Measurements published in US5858978A, “Pharmaceutical compositions containing calcitonin gene-related peptide (CGRP) and use thereof to ameliorate hyperimmune mediated diseases and abnormal conditions” (Yale University, priority 1997, dated 1999).
Read-outs that look alike come from different tables or passages of the source.

Assays:
[1] = test system: peritoneal macrophages; assay: Generation of intracellular cAMP in peritoneal macrophages (radioimmunoassay); format: cell-based, rat; settings: for cAMP accumulation in peritoneal macrophages: all time points examined
Method: (§1) Rat alveolar and peritoneal macrophages were obtained from 12 week old Fisher 344 rats (Charles River, Kingston, N.Y.). Alveolar macrophages were collected by tracheobronchial lavage as previously described (Vignery et al., J. Histochem Cytochem. , 1989). Peritoneal macrophages were collected from the same rats prior to the lung lavage. The collected cells were: (i) washed twice in Minimum Essential Medium with Earle's salts (MEME) supplemented with 2 mM L-glutamine and vitamins; (ii) plated in 6 well dishes at 10^7 cells/ml, 10^6 cells per well, in MEME containing 10% heat inactivated human serum (HS); (iii) incubated for 20 minutes at 37° C. in 5% CO2, 95% air to let the macrophages adhere; (iv) subsequently grown at 10^6 cells/ml of MEME containing 5% heat inactivated HS. Cells were cultured in FCS for the IL-6 bioassay. All tissue culture reagents were purchased from Gibco Laboratories, Grand Island, N.Y. The adherent cell populations were composed of 99% macrophages and a few occasional polymorphonuclear cells as determined by Wright stain.
(§2) For cAMP studies, cells were grown under the conditions described above but using either 24 or 96 well dishes. Each well contained either 2×10^5 or 5×10^4 cells grown in 800 or 200 μl, respectively. The cells were first washed with warm MEME and subsequently incubated at 37° C. in MEME supplemented with BSA (1 mg/ml) (Sigma Chemical, St. Louis, Mo.) either in the absence or presence of Salmon Calcitonin (sCT) (kindly provided by Dr. Orlowski, Rorer Central Research, Horsham, Pa.), rat calcitonin gene-related peptide (CGRP) (Bachem, Inc., Torrance, Calif.) and 3-isobutyl-1-methylxanthine (IBMX)(Sigma) for the indicated times. Incubations were terminated by aspirating the medium and adding 100 μl of 0.4% perchloric acid to each well. Perchloric acid extracts were neutralized with 1.5M KOH and stored at -20° C. These samples were acetylated and cAMP measured by radioimmunoassay using succinylated ^125 I-labeled cARP (Biomedical Technologies, Inc., Stoughton, Ma.). Results were expressed as fentomoles of CAMP per well. Experiments were performed in duplicates or triplicates and repeated at least 3 times.

[2] = test system: giant cells (fused alveolar macrophages); assay: Generation of intracellular cAMP in giant cells (fused alveolar macrophages), radioimmunoassay; format: cell-based, rat
Method: as §1, §2
When peritoneal macrophages from the same animals are grown in these conditions, they remain mononucleated and can therefore be used as a nonfusing control population. It was previously confirmed that giant cells differentiate in vitro by actual cell-cell fusion since DNA synthesis cannot be detected and that the total amount of DNA remains constant during culture in both alveolar and peritoneal macrophages. Therefore, the actual number of alveolar macrophages is decreased drastically by day 4 when each giant cell contains hundreds of nuclei. The important point is that the total number of nuclei remains constant so that we refer to giant cells and peritoneal macrophages as such or else as number of plated cells.

[3] = test system: giant cells (fused alveolar macrophages); assay: IL-1 release by giant cells (fused alveolar macrophages), IL-1 bioassay of supernatants; format: cell-based, rat; settings: added to release medium on day 3, 24 hour release
Method: as §1
(§3) To estimate the release of IL-1 and IL-6 by peritoneal macrophages and fused alveolar macrophages, the cells were collected and cultured as described above. Prior to perform the release, the cells were washed twice with warm MEME and subsequently incubated for 24 hours in 1 ml of MEME supplemented with 5% of HS or FCS, with or without agonist. At the termination of the release, the supernatant were collected, spun at 400 g for 10 minutes, transferred to microfuge tubes and stored at -20° C. until assayed. Macrophages remained adherent and viable in all experiments as determined by DNA measurements and trypan blue exclusion.
IL-1 activity in the macrophage supernatants was measured according to Gillis and Mizel (Proc. Natl. Acad. Sci., USA, 1981, 78:1133-1137). LBRM-33 cells, clones 1A5 and 5A4 (ATCC, Rockville, Md.) were stimulated with either PHA (Gibco), rm IL-1β or log2 dilutions of the macrophage supernatants. […] After 24 hours, the cells were exposed to 0.5 μCi[^3 H]dThd (20 mCi/mmol, New England Nuclear) for an additional 4 hours after which the cultures were harvested onto glass fiber filter strips with the aid of a multiple automated sample harvester (MASH 11, Microbiological Associates, Bethesda, Md.) [^3 H]dThd incorporation was determined by direct counting.
When peritoneal macrophages from the same animals are grown in these conditions, they remain mononucleated and can therefore be used as a nonfusing control population. It was previously confirmed that giant cells differentiate in vitro by actual cell-cell fusion since DNA synthesis cannot be detected and that the total amount of DNA remains constant during culture in both alveolar and peritoneal macrophages. […]

[4] = test system: peritoneal macrophages and giant cells; assay: IL-6 release by peritoneal and fused alveolar macrophages (IL-6 bioassay, B13.29 subclone B9); format: cell-based, rat
Method: as §1, §3
Five thousand,B13.29 cells subclone B9 (donated by Dr. Thomas Kupper, Washington University of School of Medicine, Washington, Mo.) were cultured in the presence of a log2 dilution series of macrophage supernatants or standard dilutions of rmIL-6 according to Aarden, L. A. ( Eur. J. Immunol., 1987, 17:1411-1416). […]

[5] = test system: macrophages; settings: cited from earlier work
[6] = test system: peritoneal macrophages; assay: IL-1 release by peritoneal macrophages (IL-1 bioassay of supernatants); format: cell-based, rat; settings: for IL-1 activity detected in peritoneal macrophage supernatants: added to release medium on day 3, 24 hour release
Method: as §1, §3
(§4) IL-1 activity in the macrophage supernatants was measured according to Gillis and Mizel (Proc. Natl. Acad. Sci., USA, 1981, 78:1133-1137). LBRM-33 cells, clones 1A5 and 5A4 (ATCC, Rockville, Md.) were stimulated with either PHA (Gibco), rm IL-1β or log2 dilutions of the macrophage supernatants. LBRM-33 lymphocyte supernatants were harvested from 24 hour cultures and subsequently tested for IL-2 activity using a standard microassay, Gillis et al. (J. Immunol., 1978, 120:2027-2032), based on the IL-2 dependent exponential proliferation of a murine cytotoxic T-cell line CTLL (ATCC, Rockville, Md.), Gillis and Smith (Nature (London), 1977, 268:154-156). CTLL cells were cultured in the presence of a log2 dilution series of putative IL-2 containing samples. After 24 hours, the cells were exposed to 0.5 μCi[^3 H]dThd (20 mCi/mmol, New England Nuclear) for an additional 4 hours after which the cultures were harvested onto glass fiber filter strips with the aid of a multiple automated sample harvester (MASH 11, Microbiological Associates, Bethesda, Md.) [^3 H]dThd incorporation was determined by direct counting.

[7] = test system: chronic rheumatoid arthritis; assay: Treatment of chronic rheumatoid arthritis in a human being; format: in vivo; settings: I.M. administration of 0.5 mg every 24 hours until relief
[8] = test system: CTLL cells; assay: IL-2 dependent proliferation of CTLL cells treated directly; format: cell-based, murine; settings: in the presence of IL-2
Method: as §4

[9] = test system: LBRM-33 cells; assay: IL-1 bioassay with CGRP added to IL-1 containing medium (LBRM-33 cells, CTLL readout); format: cell-based, murine
Method: as §4

## CC(C)C[C@H](NC(=O)[C@H](CCCCN)NC(=O)CNC(=O)[C@H](CC(C)C)NC(=O)[C@@H](NC(=O)[C@@H]1CSSC[C@H](N)C(=O)N[C@@H](CO)C(=O)N[C@@H](CC(N)=O)C(=O)N[C@@H](CC(C)C)C(=O)N[C@@H](CO)C(=O)N[C@@H]([C@@H](C)O)C(=O)N1)C(C)C)C(=O)N[C@@H](CO)C(=O)N[C@@H](CCC(N)=O)C(=O)N[C@@H](CCC(=O)O)C(=O)N[C@@H](CC(C)C)C(=O)N[C@@H](Cc1c[nH]cn1)C(=O)N[C@@H](CCCCN)C(=O)N[C@@H](CC(C)C)C(=O)N[C@@H](CCC(N)=O)C(=O)N[C@H](C(=O)N[C@@H](Cc1ccc(O)cc1)C(=O)N1CCC[C@H]1C(=O)N[C@@H](CCCNC(=N)N)C(=O)N[C@H](C(=O)N[C@@H](CC(N)=O)C(=O)N[C@H](C(=O)NCC(=O)N[C@@H](CO)C(=O)NCC(=O)N[C@H](C(=O)N1CCC[C@H]1C(N)=O)[C@@H](C)O)[C@@H](C)O)[C@@H](C)O)[C@@H](C)O [sCT, Salmon Calcitonin]
[1]
  cAMP accumulation in peritoneal macrophages: failed to induce a response
[2]; fused alveolar macrophages, absence of IBMX
  time of peak of cAMP accumulation after addition of the peptide: 5 min
[2]; fused alveolar macrophages, with 10 μM IBMX
  lag time to cAMP accumulation: 2 min
[2]; giant cells, absence of IBMX
  time at which cAMP returned to basal level: 15 min
[2]; giant cells, presence of IBMX
  time at which cAMP returned to basal level: 30 min
[2]; giant cells, sCT dose response
  half maximal cAMP accumulation: 50 fmoles per 6.4×10^4 plated cells
[2]; giant cells, sCT dose response, read-out: concentration for half maximal stimulation of cAMP accumulation
  EC50: 2 nM
[3]
  IL-1 activity detected in giant cell supernatants: reduced significantly
[4]
  IL-6 activity level in macrophage supernatants: neither sCT nor CGRP treatment of the cells modified this level

## CC(C)Cn1c(=O)n(C)c(=O)c2[nH]cnc21 [IBMX, 3-isobutyl-1-methylxanthine]
[1]
  cAMP accumulation in peritoneal macrophages: not able at any time point measured to induce a cAMP accumulation
[2]; fused alveolar macrophages, any time point measured
  cAMP accumulation in giant cells: not able at any time point measured to induce a cAMP accumulation

## calcitonin [CT]
[5]
  macrophage activation: prevented macrophage activation

## C=C[C@@]1(C)CC(=O)[C@]2(O)[C@@]3(C)[C@@H](O)CCC(C)(C)[C@@H]3[C@H](O)[C@H](OC(C)=O)[C@@]2(C)O1 [forskolin]
[6]
  IL-1 activity detected in peritoneal macrophage supernatants: as effective as CGRP in blocking the secretion of IL-1
[3]
  IL-1 activity detected in giant cell supernatants: as effective as CGRP in blocking the secretion of IL-1

## C=C1/C(=C\C=C2/CCC[C@]3(C)[C@@H]([C@H](C)CCCC(C)(C)O)CC[C@@H]23)C[C@@H](O)C[C@@H]1O [1,25(OH)2 -vitamin D3]
[6]
  IL-1 activity detected in peritoneal macrophage supernatants: stimulated the proliferation of CTLL cells, and probably IL-1 release
[3]
  IL-1 activity detected in giant cell supernatants: fail to respond
[4]
  IL-6 activity level in macrophage supernatants: neither CGRP nor 1,25(OH)2 -vitamin D3 appear to significantly alter this process

## Rat Calcitonin Gene-Related Peptide [CGRP]
[1]; peritoneal macrophages, 2 minutes incubation in the presence of IBMX
  half maximal concentration of cAMP: 80 fmoles per 5×10^4 plated cells
[1]; peritoneal macrophages, 2 minutes incubation in the presence of IBMX, read-out: concentration giving half maximal concentration of cAMP
  EC50: 2 nM
[7]
  symptoms of the disease, e.g. pain and swelling of the affected joints: amelioration of the symptoms of the disease
[8]
  proliferation of CTLL cells: did not prevent significantly their proliferation
[6]; 1,25(OH)2-vitamin D3 stimulated peritoneal macrophages
  IL-1 bioactivity in supernatants of vitamin D3 stimulated peritoneal macrophages: reduce significantly
[6]
  IL-1 activity detected in peritoneal macrophage supernatants: prevented the release of IL-1 by both cell types
[2]; fused alveolar macrophages, 2 minutes incubation in the presence of IBMX
  half maximal concentration of cAMP: 300 fmoles per 5×10^4 plated cells
[2]; fused alveolar macrophages, 2 minutes incubation in the presence of IBMX, read-out: concentration giving half maximal concentration of cAMP
  EC50: 2 nM
[2]; macrophages, comparison CGRP vs CT
  cAMP accumulation compared with CT: larger accumulation of cAMP in macrophages than CT
[9]
  proliferative response of CTLL cytotoxic T cells in the IL-1 bioassay: prevents the proliferative response
[3]
  IL-1 activity detected in giant cell supernatants: prevented the release of IL-1 by both cell types
[5]
  ability of macrophages to act as APC: profoundly inhibit
  ability of macrophages to produce H2O2 in response to IFN: profoundly inhibit
[4]
  IL-6 activity level in macrophage supernatants: neither sCT nor CGRP treatment of the cells modified this level
